Among the data in PubChem BioAssay (NCI) are GI50 and TGI values, retold here.

Molecules are shown by their SMILES.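 Dose response: 5 concentrations. Exposure: 48 h. Format: 96-well plates. Endpoint: linear interpolation; highest concentration if not reached. The concentration for 50% growth inhibition is given as GI50. TGI denotes the concentration required for complete inhibition of growth.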

Among the test systems are LOX IMVI melanoma; HCT-116 colon; CCRF-CEM leukemia; BT-549 breast; OVCAR-5 ovarian; HOP-92 NSCLC; RXF 393 renal; 786-0 renal; MOLT-4 leukemia; KM12 colon.
Common to all, as to assay: inhibition of tumour cell growth, NCI panel, 48 h

Regarding `COc1cc([C@@H]2c3cc4c(cc3[C@H](OC(C)=O)[C@H]3COC(=O)[C@@H]23)OCO4)cc(OC)c1OC`, the GI50 in the assay on LOX IMVI melanoma is 551 nM; in the assay with HCT-116 colon, 290 nM; in the assay on CCRF-CEM leukemia, 338 nM; in the assay with BT-549 breast, 0.419 µM; in the assay with OVCAR-5 ovarian it was 523 nM; in the assay on HOP-92 NSCLC, 2550 nM. Further, the GI50 in the assay on RXF 393 renal was 235 nM; in the assay with 786-0 renal, 0.379 µM; in the assay on MOLT-4 leukemia, 438 nM; with KM12 colon, 298 nM. Also, the TGI in the assay on LOX IMVI melanoma is more than 100 µM; in the assay on HCT-116 colon, 2.63 µM; with CCRF-CEM leukemia, more than 100 µM; in the assay with BT-549 breast it was more than 68.5 µM; in the assay on OVCAR-5 ovarian it was more than 100 µM; in the assay with HOP-92 NSCLC, more than 100 µM. The TGI with RXF 393 renal is 0.591 µM; in the assay on 786-0 renal, more than 100 µM; in the assay on MOLT-4 leukemia it was more than 100 µM.
Regarding `ClCc1cccc(Cn2cnc3c(Cl)nc(Cl)nc32)c1`, the GI50 in the assay on LOX IMVI melanoma was 1690 nM; in the assay with HCT-116 colon, 1640 nM; in the assay on CCRF-CEM leukemia, 2720 nM; with BT-549 breast, 1.69 µM; with OVCAR-5 ovarian, 6520 nM; with HOP-92 NSCLC it was 1840 nM. Further, the GI50 is 760 nM with RXF 393 renal, 12.4 µM with 786-0 renal, 3350 nM with MOLT-4 leukemia and 1820 nM with KM12 colon. In addition, the TGI was 3.4 µM with LOX IMVI melanoma; 3.12 µM in the assay with HCT-116 colon; more than 100 µM in the assay with CCRF-CEM leukemia; 3.23 µM in the assay with BT-549 breast; 20.2 µM with OVCAR-5 ovarian; 3.63 µM in the assay with HOP-92 NSCLC. Moreover, the TGI in the assay with RXF 393 renal was 2.1 µM; in the assay on 786-0 renal it was 26.8 µM; with MOLT-4 leukemia it was more than 100 µM; in the assay with KM12 colon it was 3.79 µM.
For the compound `C=C(CN1CCc2c([nH]c3ccccc23)C1)c1ccc(C(=O)Nc2ccccc2N)cc1`, the GI50 in the assay on LOX IMVI melanoma was 4520 nM; in the assay with HCT-116 colon, 2190 nM; in the assay on CCRF-CEM leukemia it was 58.1 nM; in the assay with BT-549 breast, 5.29 µM; in the assay on OVCAR-5 ovarian, 7150 nM; in the assay with HOP-92 NSCLC, 1660 nM. In addition, the GI50 is 4270 nM with RXF 393 renal, 4.96 µM with 786-0 renal, 116 nM in the assay on MOLT-4 leukemia and 3420 nM in the assay with KM12 colon. The TGI in the assay on LOX IMVI melanoma was found to be 10.2 µM; in the assay on HCT-116 colon, 32.9 µM; in the assay with CCRF-CEM leukemia, 46.3 µM; with BT-549 breast, 17.7 µM; in the assay with OVCAR-5 ovarian it was 31.6 µM; in the assay on HOP-92 NSCLC, 11.4 µM. Also, the TGI in the assay with RXF 393 renal is 12.8 µM; in the assay on 786-0 renal, 23.6 µM; in the assay with MOLT-4 leukemia, 0.405 µM; with KM12 colon it was 12.6 µM.
As to `N=c1ccc2nc3ccc(N)cc3sc-2c1`, the GI50 with LOX IMVI melanoma is 2720 nM; with HCT-116 colon, 2670 nM; in the assay on CCRF-CEM leukemia it was 3550 nM; with BT-549 breast it was 10.6 µM; with OVCAR-5 ovarian it was 7620 nM; with HOP-92 NSCLC, 17700 nM. For the same compound, the GI50 was 12200 nM in the assay on RXF 393 renal, 9.99 µM in the assay on 786-0 renal, 4590 nM in the assay on MOLT-4 leukemia and 4240 nM with KM12 colon. The TGI was 12.5 µM in the assay on LOX IMVI melanoma; 10.5 µM with HCT-116 colon; 35.3 µM in the assay on CCRF-CEM leukemia; 60.9 µM in the assay on BT-549 breast; 24.3 µM in the assay with OVCAR-5 ovarian; 61 µM with HOP-92 NSCLC. The TGI was 28.2 µM in the assay with RXF 393 renal, 29.7 µM in the assay on 786-0 renal, more than 100 µM with MOLT-4 leukemia and more than 100 µM with KM12 colon.
Take `CCSc1ccc([C@@H]2[C@@H](O)C(=O)N2c2cc(OC)c(OC)c(OC)c2)cc1`: the GI50 is less than 14.7 nM in the assay with LOX IMVI melanoma; less than 11 nM with HCT-116 colon; less than 17.1 nM with CCRF-CEM leukemia; 0.0264 µM in the assay with BT-549 breast; 52.6 nM in the assay with OVCAR-5 ovarian; less than 10 nM with RXF 393 renal. The GI50 in the assay on 786-0 renal was less than 0.016 µM; in the assay on MOLT-4 leukemia, 38.4 nM; with KM12 colon, less than 13.3 nM. Moreover, the TGI in the assay on LOX IMVI melanoma is 14.5 µM; in the assay on HCT-116 colon, 3.06 µM; in the assay with CCRF-CEM leukemia, more than 100 µM; in the assay on BT-549 breast, 0.503 µM; with OVCAR-5 ovarian it was more than 100 µM; in the assay with HOP-92 NSCLC it was 42.1 µM. Moreover, the TGI was found to be 52.3 µM in the assay on RXF 393 renal, 29 µM with 786-0 renal, 17.7 µM with MOLT-4 leukemia and 33.7 µM with KM12 colon.
For the compound `CCCN(CCC)c1ccc(C=O)c(Cl)c1`, the GI50 was 23400 nM with LOX IMVI melanoma; 2200 nM in the assay on HCT-116 colon; 35500 nM in the assay on CCRF-CEM leukemia; 24 µM with BT-549 breast; 432 nM in the assay with OVCAR-5 ovarian; 9640 nM in the assay with HOP-92 NSCLC. In addition, the GI50 in the assay with RXF 393 renal is 14200 nM; in the assay with 786-0 renal, 20 µM; in the assay on MOLT-4 leukemia it was 29600 nM; in the assay with KM12 colon it was 28600 nM. Further, the TGI in the assay with LOX IMVI melanoma was more than 63.7 µM; in the assay with HCT-116 colon, 19 µM; in the assay with CCRF-CEM leukemia, more than 100 µM; in the assay on BT-549 breast, more than 80.4 µM; in the assay with OVCAR-5 ovarian it was 2.33 µM; in the assay with HOP-92 NSCLC it was 36 µM. Besides, the TGI in the assay on RXF 393 renal was 33.6 µM; in the assay on 786-0 renal, 53 µM; with MOLT-4 leukemia it was 97.1 µM; with KM12 colon it was more than 83.6 µM.
Regarding `CC(=O)c1ccc2c(c1)N(CCCN1CCN(CCO)CC1)c1ccccc1S2`, the GI50 is 1680 nM in the assay with LOX IMVI melanoma; 1810 nM in the assay with HCT-116 colon; 1680 nM in the assay with CCRF-CEM leukemia; 3.38 µM in the assay with BT-549 breast; 2290 nM in the assay on OVCAR-5 ovarian; 1100 nM in the assay on HOP-92 NSCLC. For the same compound, the GI50 with RXF 393 renal was 2090 nM; with 786-0 renal it was 1.77 µM; in the assay with MOLT-4 leukemia it was 2990 nM; with KM12 colon, 1970 nM. Further, the TGI amounted to 3.26 µM in the assay on LOX IMVI melanoma; 3.49 µM in the assay on HCT-116 colon; 5.53 µM in the assay with CCRF-CEM leukemia; 11.9 µM in the assay on BT-549 breast; 9.78 µM with OVCAR-5 ovarian; 5.97 µM in the assay with HOP-92 NSCLC. The TGI in the assay with RXF 393 renal worked out at 5.95 µM; in the assay with 786-0 renal, 3.64 µM; in the assay on MOLT-4 leukemia, 8.86 µM; in the assay on KM12 colon it was 4.04 µM.
